Experimental data published in patent US20250295748A1 (priority 2020, published 2025).
*1 amine or outer side, *2 acyl side, *3 side chain or, on linkers, in order; H or OH if unused. Where a SMILES comes first, the peptide text is derived from it. Bridges are numbered along the chain shown (N, C = ends). [ ]: non-standard residue; d: D form. X1 = CC(C)CCCCCCCCC[C@H](CC(=O)[*:1])O[*:2]

Target: Bovine Serum Albumin (BSA) (Bos taurus, UniProt P02769)
Assay: Thermal shift assay (SYPRO-Orange) of BSA
Type: biochemical
Conditions: FIG. 8, BSA 0.1 mg/ml, 1×PBS

Chain of Bovine Serum Albumin (BSA) (P02769 25-607): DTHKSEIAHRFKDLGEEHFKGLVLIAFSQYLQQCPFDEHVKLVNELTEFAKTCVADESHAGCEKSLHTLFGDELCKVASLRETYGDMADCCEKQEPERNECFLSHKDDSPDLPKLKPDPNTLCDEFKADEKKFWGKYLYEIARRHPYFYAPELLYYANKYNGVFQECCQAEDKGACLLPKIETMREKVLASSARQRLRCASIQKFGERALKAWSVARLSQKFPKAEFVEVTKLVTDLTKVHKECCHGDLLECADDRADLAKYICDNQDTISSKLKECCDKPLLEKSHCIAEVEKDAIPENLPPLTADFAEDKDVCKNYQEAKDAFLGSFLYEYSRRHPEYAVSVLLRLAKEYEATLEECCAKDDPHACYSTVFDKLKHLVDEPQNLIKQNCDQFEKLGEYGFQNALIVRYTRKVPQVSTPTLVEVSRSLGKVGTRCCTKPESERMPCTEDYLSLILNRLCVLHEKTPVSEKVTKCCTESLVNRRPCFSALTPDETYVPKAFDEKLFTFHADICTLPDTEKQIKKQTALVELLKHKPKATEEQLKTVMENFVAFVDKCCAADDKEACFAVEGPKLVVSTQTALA

SMILES: CC(C)CCCCCCCCC[C@@H]1CC(=O)N[C@@H](CCC(=O)O)C(=O)N[C@@H](CC(C)C)C(=O)N[C@H](CC(C)C)C(=O)N[C@@H](C(C)C)C(=O)N[C@@H](CC(=O)O)C(=O)N[C@H](CC(C)C)C(=O)N[C@@H](CC(C)C)C(=O)O1 [Surfactin] (EL[dL]VD[dL]L; linker N-C via X1)
- denaturing activity against BSA (decrease in Tm vs concentration): potent at denaturing BSA but less than 277-SEC
